Assays:
[1] = hygroscopicity / solvate formation on purification; assay type: physicochemical
[2] = oral absorption profile; assay type: in vivo; conditions: compared with the free base
[3] = stability (solid and aqueous solution); assay type: physicochemical
[4] = aqueous solubility; assay type: physicochemical

Row | Compound | hygroscopicity or formation of solvates [1] | oral absorption profile [2] | stability [3] | aqueous solubility ([4]; water) | solubility (in words) ([4]; aqueous)
1 | COc1cc(N(C)CCOc2ccc(CC3SC(=O)NC3=O)cc2)ncn1.[Na] (stereo not drawn) [Sodium Salt, sodium salt of 5-(4-{2-[(6-methoxy-pyrimydin-4-yl)-methyl-amino]-ethoxy}-benzyl)-thiazolidin-2,4-dione] | without problems of hygroscopicity or formation of solvates | better oral absorption profile than the free base | good stability | higher than 1 mg/ml | 
2 | COc1cc(N(C)CCOc2ccc(CC3SC(=O)NC3=O)cc2)ncn1 (stereo not drawn) [Compound I, 5-(4-{2-[(6-methoxypyrimydin-4-yl)-methyl-amino]-ethoxyl}-benzyl)-thiazolidin-2,4-dione] |  |  | problems of stability |  | problems of stability and solubility

Reference: US20040106632A1, “Salt of thiazolidinedione and its polymorphs as antidiabetic agents and method for obtaining them” (priority 2001, published 2004)
